From PMC3128679 (Bioorganic & medicinal chemistry letters, 2011)
One block for each compound: values may come before it.

Assays:
Assay type in all cases: biochemical
VHR = VHR (Homo sapiens, UniProt P51452); assay: PTP panel inhibition assay, VHR; settings: at 100 µM
SHP2 [1] = target: T1, SHP2 (Homo sapiens, UniProt Q06124); assay: in vitro SHP2 inhibition assay; settings: for SHP2 inhibition at 1 mM: 1 mM compound concentration
T1 sequence (Q06124 1-593): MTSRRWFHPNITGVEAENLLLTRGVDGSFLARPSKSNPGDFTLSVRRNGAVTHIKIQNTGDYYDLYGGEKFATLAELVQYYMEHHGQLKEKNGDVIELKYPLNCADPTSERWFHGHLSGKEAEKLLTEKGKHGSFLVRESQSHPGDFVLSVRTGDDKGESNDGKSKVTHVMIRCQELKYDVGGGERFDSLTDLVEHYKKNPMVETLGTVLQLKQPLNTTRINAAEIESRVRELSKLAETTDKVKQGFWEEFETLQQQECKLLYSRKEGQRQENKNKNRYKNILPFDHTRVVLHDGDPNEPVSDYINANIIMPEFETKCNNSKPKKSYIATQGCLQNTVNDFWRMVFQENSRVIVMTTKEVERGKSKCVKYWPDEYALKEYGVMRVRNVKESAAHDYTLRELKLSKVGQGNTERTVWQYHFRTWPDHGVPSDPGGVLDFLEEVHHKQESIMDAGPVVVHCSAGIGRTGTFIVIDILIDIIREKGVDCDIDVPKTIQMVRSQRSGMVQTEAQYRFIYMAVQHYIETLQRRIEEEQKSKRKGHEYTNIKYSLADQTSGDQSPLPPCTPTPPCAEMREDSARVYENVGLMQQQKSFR

PTPα = PTPα (Homo sapiens, UniProt P18433); assay: PTP panel inhibition assay, PTPα; settings: at 100 µM
Chain of PTPα (P18433 20-802): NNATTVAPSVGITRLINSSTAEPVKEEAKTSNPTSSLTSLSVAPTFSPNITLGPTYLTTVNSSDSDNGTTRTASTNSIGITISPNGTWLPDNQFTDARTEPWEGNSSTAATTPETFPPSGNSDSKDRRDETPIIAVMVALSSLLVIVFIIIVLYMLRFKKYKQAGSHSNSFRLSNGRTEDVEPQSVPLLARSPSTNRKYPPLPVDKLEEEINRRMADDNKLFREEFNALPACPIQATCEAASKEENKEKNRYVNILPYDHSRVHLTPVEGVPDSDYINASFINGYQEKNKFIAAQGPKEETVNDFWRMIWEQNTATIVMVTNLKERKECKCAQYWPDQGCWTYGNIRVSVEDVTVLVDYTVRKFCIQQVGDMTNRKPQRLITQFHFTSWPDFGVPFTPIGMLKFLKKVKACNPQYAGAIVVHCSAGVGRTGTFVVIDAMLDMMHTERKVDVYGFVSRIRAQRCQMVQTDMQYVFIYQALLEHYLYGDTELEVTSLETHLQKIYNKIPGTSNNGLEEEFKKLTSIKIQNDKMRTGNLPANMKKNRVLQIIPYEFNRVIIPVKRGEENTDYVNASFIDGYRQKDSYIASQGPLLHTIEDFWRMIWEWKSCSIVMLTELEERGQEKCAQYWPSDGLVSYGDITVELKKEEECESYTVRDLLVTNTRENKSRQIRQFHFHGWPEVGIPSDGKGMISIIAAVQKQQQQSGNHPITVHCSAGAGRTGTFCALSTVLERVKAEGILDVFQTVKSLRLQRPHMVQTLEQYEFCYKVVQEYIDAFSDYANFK

SHP2 [2] = target: T1, SHP2; assay: steady-state enzyme kinetic analysis of SHP2 inhibition; settings: C21 at 0, 4, 8 and 12 µM
LYP = target: T2, LYP (Homo sapiens, UniProt Q9Y2R2); assay: PTP panel inhibition assay, LYP; settings: at 100 µM
T2 sequence (Q9Y2R2 1-807): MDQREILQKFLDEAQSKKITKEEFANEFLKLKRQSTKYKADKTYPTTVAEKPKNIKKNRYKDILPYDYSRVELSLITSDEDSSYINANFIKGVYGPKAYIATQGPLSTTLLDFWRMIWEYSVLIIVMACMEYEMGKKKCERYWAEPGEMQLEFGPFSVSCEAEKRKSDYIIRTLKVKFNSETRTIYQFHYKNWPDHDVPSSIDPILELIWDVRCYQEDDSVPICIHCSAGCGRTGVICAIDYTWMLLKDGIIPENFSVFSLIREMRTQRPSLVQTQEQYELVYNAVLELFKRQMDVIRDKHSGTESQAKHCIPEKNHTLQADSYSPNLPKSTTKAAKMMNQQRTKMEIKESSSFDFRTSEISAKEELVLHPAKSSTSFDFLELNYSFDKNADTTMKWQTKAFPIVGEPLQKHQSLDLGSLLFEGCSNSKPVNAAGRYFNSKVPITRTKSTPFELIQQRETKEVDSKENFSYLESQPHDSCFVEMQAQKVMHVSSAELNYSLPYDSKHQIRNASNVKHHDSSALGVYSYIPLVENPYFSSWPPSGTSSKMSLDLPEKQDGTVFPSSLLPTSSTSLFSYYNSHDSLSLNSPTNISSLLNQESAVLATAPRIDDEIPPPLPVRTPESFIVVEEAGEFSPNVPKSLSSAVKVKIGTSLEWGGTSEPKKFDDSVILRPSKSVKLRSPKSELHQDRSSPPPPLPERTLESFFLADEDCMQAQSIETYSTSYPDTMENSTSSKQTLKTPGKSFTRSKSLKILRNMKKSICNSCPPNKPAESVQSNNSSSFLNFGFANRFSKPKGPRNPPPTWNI

Cdc14 = assay: PTP panel inhibition assay, Cdc14; settings: at 100 µM
SHP1 = SHP1 (Homo sapiens, UniProt P29350); assay: SHP1 inhibition assay
Chain of SHP1 (P29350 whole entry): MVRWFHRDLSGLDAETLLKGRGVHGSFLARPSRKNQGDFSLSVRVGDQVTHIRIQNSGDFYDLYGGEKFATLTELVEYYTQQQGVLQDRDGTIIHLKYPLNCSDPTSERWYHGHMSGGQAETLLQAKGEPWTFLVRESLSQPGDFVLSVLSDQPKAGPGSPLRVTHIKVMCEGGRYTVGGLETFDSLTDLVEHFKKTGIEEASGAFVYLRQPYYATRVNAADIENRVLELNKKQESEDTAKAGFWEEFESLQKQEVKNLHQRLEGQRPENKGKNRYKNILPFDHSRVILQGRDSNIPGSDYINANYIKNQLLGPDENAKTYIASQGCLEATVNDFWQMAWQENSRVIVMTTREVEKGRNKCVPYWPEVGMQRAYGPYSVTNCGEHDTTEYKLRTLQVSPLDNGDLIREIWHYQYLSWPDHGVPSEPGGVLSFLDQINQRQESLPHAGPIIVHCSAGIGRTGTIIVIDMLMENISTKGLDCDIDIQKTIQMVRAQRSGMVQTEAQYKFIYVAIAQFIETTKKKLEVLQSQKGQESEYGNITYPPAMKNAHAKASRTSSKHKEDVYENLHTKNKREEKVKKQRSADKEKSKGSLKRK

PTP1B = target: T3, PTP1B (Homo sapiens, UniProt P18031); assay: PTP1B inhibition assay
T3 sequence (P18031 1-435): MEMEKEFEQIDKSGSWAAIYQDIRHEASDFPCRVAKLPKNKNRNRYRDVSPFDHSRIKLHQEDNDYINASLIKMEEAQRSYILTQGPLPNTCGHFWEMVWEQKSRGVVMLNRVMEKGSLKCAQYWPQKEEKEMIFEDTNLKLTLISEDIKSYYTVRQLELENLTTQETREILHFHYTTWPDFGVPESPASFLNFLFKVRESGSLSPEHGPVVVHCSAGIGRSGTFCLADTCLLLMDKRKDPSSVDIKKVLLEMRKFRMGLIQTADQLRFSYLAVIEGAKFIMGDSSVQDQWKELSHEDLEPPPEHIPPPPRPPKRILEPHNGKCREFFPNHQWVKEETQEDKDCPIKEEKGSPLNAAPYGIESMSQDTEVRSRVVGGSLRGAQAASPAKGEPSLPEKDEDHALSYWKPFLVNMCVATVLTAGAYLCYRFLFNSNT

Chain of VHR (P51452 whole entry, species assumed): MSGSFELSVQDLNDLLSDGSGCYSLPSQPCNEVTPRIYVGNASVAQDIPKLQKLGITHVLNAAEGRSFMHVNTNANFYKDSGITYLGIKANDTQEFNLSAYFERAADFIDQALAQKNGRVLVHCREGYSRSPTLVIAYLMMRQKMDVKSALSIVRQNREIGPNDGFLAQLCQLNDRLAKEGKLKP

Structure (SMILES): O=C(O)C1=NN(c2ccc(S(=O)(=O)O)cc2)C(=O)C1 [Compound C21-A2]
fold decreased affinity for SHP2 (SHP2 [1]; relative to C21-A1): ~ 4 fold

Structure (SMILES): Cc1cc(S(=O)(=O)O)ccc1N1N=C(C(=O)O)CC1=O [Compound C21-A1]
fold decreased SHP2 inhibition (SHP2 [1]; relative to C21): ~ 5 fold

Structure (SMILES): O=C(O)C1=NN(c2ccccc2)C(=O)C1 [Compound C21-A3]
IC50 (SHP2 [1]): > 1000 µM | SHP2 inhibition at 1 mM (SHP2 [1]): failed to inhibit SHP2

Structure (SMILES): CC1=NN(c2ccc(S(=O)(=O)O)cc2C)C(=O)C1 [Compound C21-A4]
IC50 (SHP2 [1]): > 1000 µM | SHP2 inhibition at 1 mM (SHP2 [1]): failed to inhibit SHP2

The next lines start with results.

inhibition of VHR (VHR): almost no inhibition | concentration dependence of SHP2 inhibition (SHP2 [1]): concentration-dependent inhibition | inhibition of PTPα (PTPα): almost no inhibition | mode of inhibition against SHP2 (SHP2 [2]): reversible and competitive | inhibition of LYP (LYP): almost no inhibition
Structure (SMILES): Cc1cc(S(=O)(=O)O)c(S(=O)(=O)O)cc1N1N=C(C(=O)O)CC1=O [Compound C21]
inhibition of Cdc14 (Cdc14): almost no inhibition

concentration dependence of SHP2 inhibition (SHP2 [1]): concentration-dependent inhibition | inhibitory activity against SHP2 (in words) (SHP2 [1]): only moderate inhibitory activity | inhibition against SHP1 compared with SHP2 (in words) (SHP1): better inhibition | inhibition against PTP1B compared with SHP2 (in words) (PTP1B): better inhibition
Structure (SMILES): CC(=O)c1c(C)oc2ccc(NS(=O)(=O)c3cccc(C(=O)O)c3)cc12 [Compound C30]

concentration dependence of SHP2 inhibition (SHP2 [1]): concentration-dependent inhibition | inhibitory activity against SHP2 (in words) (SHP2 [1]): only moderate inhibitory activity | inhibition against SHP1 compared with SHP2 (in words) (SHP1): better inhibition | inhibition against PTP1B compared with SHP2 (in words) (PTP1B): better inhibition
Structure (SMILES): CC(=O)N(c1ccc2oc3c(c2c1)CCCC3)S(=O)(=O)c1ccc(C(=O)O)cc1 [Compound C18]
